# From patent US20260076975A1, “TPK AGONIST AND METHOD FOR USING SAME TO TREAT NEURODEGENERATIVE DISEASES” (SHANGHAI RAISING PHARMACEUTICAL CO., LTD., priority 2022, published 2026)
# Like-named read-outs stand apart in the source and are kept apart here.
# Target: TPK enzyme (Homo sapiens, UniProt Q9H3S4)
# Experiment: TPK enzyme activity test (TDP formation from thiamine and ATP, HPLC detection)
# Assay type: biochemical
# Experimental: The purpose of this example was to test the promoting effect of compounds on TPK enzyme activity and evaluate the in vitro activity of the compounds based on EC50 and Emax.
# 1.1) The constant-temperature water-bath shaker was pre-heated half an hour in advance at a pre-heating temperature of 37° C.
# 1.2) The stock solution of the compound to be tested was taken out, allowed to thaw at room temperature, and then diluted to the required concentration.
# 1.3) The required reagents were placed on ice to thaw.
# 2.1) For each reaction system, TPK enzyme solution, Tris-HCl buffer solution, and ATP solution were added. The concentration of ATP used was 1-500 mM. The above three solutions were formulated into a homogeneous mixture.
# 2.2) The mixture of the above three solutions was dispensed into centrifuge tubes. Then, the compound at the required concentration was added to each centrifuge tube. Finally, thiamine solution (1-100 μM) was added. After the addition of the above system was completed, the centrifuge tubes were tightly capped, inserted into a floating board, and placed in the constant-temperature water-bath shaker that had been pre-heated to 37° C. for incubation for 0.5-2.0 hours.
# 2.3) After the incubation was completed, perchloric acid stop solution was added and mixed well. Samples were taken into 1.5 mL centrifuge tubes and stored at −20° C.
# 3.1) The samples stored at −20° C. were taken out, thawed at room temperature, and then subjected to derivatization treatment. The samples were placed in centrifuge tubes, a potassium ferricyanide derivatization reagent was added, and finally phosphoric acid stop solution was added to stop the reaction.
# 3.2) The derivatized samples were placed in sample vials for liquid chromatography analysis, and the contents of TDP/thiamine were detected by high performance liquid chromatography. TKP enzyme activity=TDP (nM)/mg protein/min.
# The effects of the compounds of the present invention on TPK enzyme activity at different concentrations were determined according to the above procedures.
# [1] = promoting effect on TPK enzyme activity
# [2] = promoting effect on TPK enzyme activity, calculated with the effect of DMSO on TPK enzyme activity as 100%, read-out: Emax
# TPK enzyme, sequence (Q9H3S4 whole entry): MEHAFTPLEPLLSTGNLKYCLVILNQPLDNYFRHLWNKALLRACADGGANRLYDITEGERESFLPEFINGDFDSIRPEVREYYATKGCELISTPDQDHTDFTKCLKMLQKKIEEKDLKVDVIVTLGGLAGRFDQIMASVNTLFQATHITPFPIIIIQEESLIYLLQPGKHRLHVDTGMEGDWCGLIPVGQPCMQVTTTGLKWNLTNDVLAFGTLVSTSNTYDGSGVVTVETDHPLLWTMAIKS
SMILES,EC50 [1] [nM],Emax [2] [%],Emax [%],"Emax (promoting effect on TPK enzyme activity, calculated with the effect of DMSO on TPK enzyme activity as 100%) [%]"
"O=c1ccc2ccc(OCCN3CCN(c4nc5ccccc5s4)CC3)cc2[nH]1 [Compound 35, 7-(2-(4-(benzothiazol-2-yl)piperazin-1-yl)ethoxy)quinolin-2(1H)-one]",1370,163,,
"CC1(C)CCC(C)(C)c2cc(NC(=O)CCC(=O)N3CCN(c4cccc(Cl)c4Cl)CC3)ccc21 [Compound 31, 4-(4-(2,3-dichlorophenyl)piperazin-1-yl)-4-oxo-N-(5,5,8,8-tetramethyl-5,6,7,8-tetrahydronaphthalen-2-yl)butanamide]",,124,,
"COc1cc2c(cc1OC)C(CCCCC(=O)NCc1ccc(C(C)C)cc1)C(=O)N2 (stereo not shown) [Compound 132, 5-(5,6-dimethoxy-2-oxoindolin-3-yl)-N-(4-isopropylbenzyl)pentanamide]",,120,,
"O=C1Cc2ccc(OCCCCN3CCN(c4cccc(C(F)(F)F)c4)CC3)cc2N1 [Compound 25, 6-(4-(4-(3-(trifluoromethyl)phenyl)piperazin-1-yl)butoxy)indolin-2-one]",754,138,,
"O=C1CCc2ccc(OCCN3CCc4cc(Cl)ccc43)cc2N1 [Compound 103, 7-(2-(5-chloroindolin-1-yl)ethoxy)-3,4-dihydroquinolin-2(1H)-one]",17300,137,,
"CN(c1cccc(Cl)c1Cl)[C@@H]1CCN(CCCCOc2ccc3c(c2)NC(=O)CC3)C1 [Compound 133, (R)-7-(4-(3-((2,3-dichlorophenyl)(methyl)amino)pyrrolidin-1-yl)butoxy)-3,4-dihydroquinolin-2(1H)-one]",10800,167,,
CC(C)C(CNC(=O)COc1ccc2c(c1)CCC(=O)N2)N1CCc2ccccc2C1 (stereo not shown) [Compound 153],7860,201,,
"COc1ccc(/C=C/CN2CCN(c3nc4ccccc4s3)CC2)cc1OC [Compound 73, (E)-2-(4-(3-(3,4-dimethoxyphenyl)allyl)piperazin-1-yl)benzo[d]thiazole]",650,155,,
O=C1COc2ccc(C(=O)CSCCSCC(=O)c3ccc4c(c3)NC(=O)CO4)cc2N1 [Compound 155],,125,,
"Cc1cc2c(s1)Nc1ccccc1N=C2N1CCN(CCCCOc2ccc3c(c2)NC(=O)CC3)CC1 [Compound 42, 7-(4-(4-(2-methyl-10H-benzo[b]thieno[2,3-e][1,4]diazepin-4-yl)piperazin-1-yl)butoxy)-3,4-dihydroquinolin-2(1H)-one]",1000,170,,
"O=C1NCCc2ccc(OCCCCCN3CCN(c4cccc(Cl)c4Cl)CC3)cc21 [Compound 23, 7-((5-(4-(2,3-dichlorophenyl)piperazin-1-yl)pentyl)oxy)-3,4-dihydroisoquinolin-1(2H)-one]",1010,226,,
O=C1CCc2ccc(OCCCN3CCN(c4cccc(Cl)c4Cl)CC3)cc2N1 [Compound 5],1200,184,,
"COC(=O)c1cc(OC)c(OC)cc1C(=O)N1CCN(c2cccc(Cl)c2Cl)CC1 [Compound 173, methyl 2-(4-(2,3-dichlorophenyl)piperazine-1-carbonyl)-4,5-dimethoxybenzoate]",,,132,
"CC1(C)CCC(C)(C)c2cc(NC(=O)C=CC(=O)N3CCN(c4cccc(Cl)c4Cl)CC3)ccc21 [Compound 30, 4-(4-(2,3-dichlorophenyl)piperazin-1-yl)-4-oxo-N-(5,5,8,8-tetramethyl-5,6,7,8-tetrahydronaphthalen-2-yl)but-2-enamide]",,132,,
"CCOC(=O)c1nc(CNC(=O)CCCN2CCN(c3cccc(Cl)c3Cl)CC2)sc1C [Compound 82, ethyl 2-((4-(4-(2,3-dichlorophenyl)piperazin-1-yl)butanamido)methyl)-5-methylthiazole-4-carboxylate]",2520,156,,
O=C(CCc1c[nH]c2ccccc12)N1CCN(CC(=O)N2CCCC2)CC1 [Compound 139],8090,191,,
"O=C(NCCCCN1CCN(c2cc(C(F)(F)F)cc(C(F)(F)F)c2)CC1)c1ccc(Cl)cc1 [Compound 53, N-(4-(4-(3,5-bis(trifluoromethyl)phenyl)piperazin-1-yl)butyl)-4-chlorobenzamide]",,,133,
"O=C1CCc2ccc(OCCCCN3CCN(c4nc5ccccc5s4)CC3)cc2N1 [Compound 36, 7-(4-(4-(benzo[d]thiazol-2-yl)piperazin-1-yl)butoxy)-3,4-dihydroquinolin-2(1H)-one]",1320,139,,
"COc1cc2c(cc1OC)N(CCCCN1CCN(c3cccc(C(F)(F)F)c3)CC1)C(=O)C2 [Compound 78, 5,6-dimethoxy-1-(4-(4-(3-(trifluoromethyl)phenyl)piperazin-1-yl)butyl)indol-2-one]",,,130,
CCC1Oc2cc(S(=O)(=O)N(C)CC(=O)NCc3ccc(Cl)cc3)c(C)cc2NC1=O (stereo not shown) [Compound 143],,122,,
"O=C(/C=C/c1cc(O)c(O)c(O)c1)N1CCN(c2cccc(Cl)c2Cl)CC1 [Compound 55, (E)-1-(4-(2,3-dichlorophenyl)piperazin-1-yl)-3-(3,4,5-trihydroxyphenyl)prop-2-en-1-one]",,134,,

SMILES,EC50 [1] [nM],Emax [2] [%],Emax [%],"Emax (promoting effect on TPK enzyme activity, calculated with the effect of DMSO on TPK enzyme activity as 100%) [%]"
"Cc1ccc2c(n1)N(CCC(=O)NCCN1CCN(c3cc(Cl)ccc3C)CC1)CCO2 [Compound 76, N-(2-(4-(5-chloro-2-methylphenyl)piperazin-1-yl)ethyl)-3-(6-methyl-2,3-dihydro-4H-pyrido[3,2-b][1,4]oxazin-4-yl)propanamide]",3460,147,,
O=C1COc2ccc(C(=O)COC(=O)C=Cc3ccc(S(=O)(=O)N4CCCCCC4)cc3)cc2N1 [Compound 154],,132,,
O=C(/C=C/c1ccc(O)c(O)c1)N1CCN(c2cccc(Cl)c2Cl)CC1 [Compound 56],,180,,
CC(NC(=O)Nc1nncs1)c1ccc2c(c1)CCC(=O)N2 (stereo not shown) [Compound 156],,120,,
"CNc1cc(NC(=O)CCN2CCN(c3cccc(Cl)c3Cl)CC2)ccc1OC [Compound 50, 3-(4-(2,3-dichlorophenyl)piperazin-1-yl)-N-(4-methoxy-3-(methylamino)phenyl)propanamide]",,128,,
O=C(CN1CCC(c2c[nH]c3ccccc23)CC1)NC(=O)NC1CC1 [Compound 138],1010,180,,
Cc1ccc(Cl)cc1N1CCN(CCNC(=O)CC2Oc3ccccc3NC2=O)CC1 (stereo not shown) [Compound 84],3860,,,154.70
Cc1ccc(Cl)cc1N1CCN(CCCNC(=O)C2COc3ccccc3C2)CC1 (stereo not shown) [Compound 149],,182,,
"O=C1CCc2ccc(OCC(=O)NC3CCC(c4cccc(Cl)c4Cl)CC3)cc2N1 (stereo not shown) [Compound 21, N-(4-(2,3-dichlorophenyl)cyclohexyl)-2-((2-oxo-1,2,3,4-tetrahydroquinolin-7-yl)oxy)acetamide]",1060,166,,
COc1ccc(C(=O)NCCCC(=O)N2CCN(c3cccc(Cl)c3Cl)CC2)cc1OC [Compound 170],4390,,156,
O=C(CCn1cnc2sccc2c1=O)N1CCN(c2cccc(C(F)(F)F)c2)CC1 [Compound 147],,147,,
Cc1cc2c(cc1S(=O)(=O)N(C)CC(=O)NCc1ccc(F)cc1)OCC(=O)N2 [Compound 142],,126,,
O=C1COc2ccc(OCCCCN3CCN(c4cccc(Cl)c4Cl)CC3)cc2N1 [Compound 26],1220,190,,
"O=C1CCc2ccc(OCCCCCN3CCN(c4cccc(C(F)(F)F)c4)CC3)cc2N1 [Compound 7, 7-((5-(4-(3-(trifluoromethyl)phenyl)piperazin-1-yl)pentyl)oxy)-3,4-dihydroquinolin-2(1H)-one]",1180,224,,
"Cc1cc2c(s1)Nc1ccccc1N=C2N1CCN(CCCOc2ccc3c(c2)NC(=O)CC3)CC1 [Compound 40, 7-(3-(4-(2-methyl-10H-benzo[b]thieno[2,3-e][1,4]diazepin-4-yl)piperazin-1-yl)propoxy)-3,4-dihydroquinolin-2(1H)-one]",,122,,
"COc1cncc(C#CC(=O)N2CCN(c3cccc(Cl)c3Cl)CC2)c1 [Compound 72, 1-(4-(2,3-dichlorophenyl)piperazin-1-yl)-3-(5-methoxypyridin-3-yl)prop-2-yn-1-one]",3240,,171,
O=C1NCCc2ccc(OCCCCN3CCN(c4cccc(Cl)c4Cl)CC3)cc21 [Compound 22],1190,167,,
"COc1ccc(/C=C/CC(=O)N2CCN(c3cccc(Cl)c3Cl)CC2)cc1OC [Compound 59, (E)-1-(4-(2,3-dichlorophenyl)piperazin-1-yl)-4-(3,4-dimethoxyphenyl)but-3-en-1-one]",1220,,206,
CN(CC(=O)NCc1ccc(Cl)cc1)S(=O)(=O)c1ccc2[nH]c(=O)ccc2c1 [Compound 145],,120,,
"COc1ccc(NC(=O)CN2CCN(c3cccc(Cl)c3Cl)CC2)cc1N(C)C [Compound 48, 2-(4-(2,3-dichlorophenyl)piperazin-1-yl)-N-(3-(dimethylamino)-4-methoxyphenyl)acetamide]",3800,156,,
